In publication PMC4503722, “Novel Phenotypic Outcomes Identified for a Public Collection of Approved Drugs from a Publicly Accessible Panel of Assays” (PLoS ONE, 2015):
Where two headings read alike, the source gives them in different places.

How the values were obtained:
SNU-C1 = test: cells; assay type: cell-based; conditions: for IC50 / Basal_Viability ATP SNU-C1 IC50/EC50: assay number 30; for IC50: read-out: Basal_Viability ATP SNU-C1 summarized IC50
RKO = test: cells; assay type: cell-based; conditions: for IC50 / Basal_Viability ATP RKO IC50/EC50: assay number 29; for IC50: read-out: Basal_Viability ATP RKO summarized IC50
SW480 = test: cells; assay type: cell-based; conditions: for IC50 / Basal_Viability ATP SW480 IC50/EC50: assay number 24; for IC50: read-out: Basal_Viability ATP SW480 summarized IC50
HT-29 = test: cells; assay type: cell-based; conditions: for IC50 / Basal_Viability ATP HT-29 IC50/EC50: assay number 28; for IC50: read-out: Basal_Viability ATP HT-29 summarized IC50
Colo320 = test: cells; assay type: cell-based; conditions: for IC50 / Basal_Viability ATP Colo 320 IC50/EC50: assay number 27; for IC50: read-out: Basal_Viability ATP Colo 320 summarized IC50
DLD-1 = test: cells; assay type: cell-based; conditions: for IC50 / Basal_Viability ATP DLD-1 IC50/EC50: assay number 23; for IC50: read-out: Basal_Viability ATP DLD-1 summarized IC50
[1] = system: HCT116 cells treated with a GSK3β inhibitor; test: cells; assay type: cell-based; conditions: for IC50 / GSK3b inh pretreated_Viability ATP HCT116 IC50/EC50: assay number 26, GSK3b inhibitor pretreated; for IC50: read-out: GSK3b inh pretreated_Viability ATP HCT116 summarized IC50
HCT116 = test: cells; assay type: cell-based; conditions: for IC50 / Basal_Viability ATP HCT116 IC50/EC50: assay number 25, basal; for IC50: read-out: Basal_Viability ATP HCT116 summarized IC50
HeLa cells = test: cells; assay type: cell-based;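 as to Hela CellCycMod PI 4N summarized IC50: value tracks stimulation of 4N DNA content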
[2] = system: endothelial tube formation in co-cultures of ECFCs and ADSCs treated with VEGF; test: cells; assay type: cell-based, human
[3] = system: ECFC/ADSC co-culture cell nuclei number
[4] = assay number 14, 2N, read-out: Hela CellCycMod PI 2N summarized IC50
[5] = assay number 15, S phase, read-out: Hela CellCycMod PI S Phase summarized IC50
[6] = assay number 16, 4N, read-out: Hela CellCycMod PI 4N summarized IC50
[7] = assay number 17, MI, read-out: Hela CellCycMod PI MI summarized IC50
[8] = assay number 18, cell number, read-out: Hela CellCycMod PI Cell Number summarized IC50

Row | SMILES | IC50 (SNU-C1; basal) [µM] | IC50 (RKO; basal) [µM] | IC50 (SW480; basal) [µM] | IC50 (HT-29; basal) [µM] | IC50 (Colo320; basal) [µM] | IC50 (DLD-1; basal) [µM] | IC50 [1] [µM] | IC50 (HCT116) [µM] | IC50 (HeLa cells; [4]) [µM] | IC50 (HeLa cells; [5]) [µM] | IC50 (HeLa cells; [6]) [µM] | IC50 (HeLa cells; [7]) [µM] | IC50 (HeLa cells; [8]) [µM] | GSK3b inh pretreated_Viability ATP HCT116 IC50/EC50 [1] [µM] | other results
1 | CCC(=O)c1ccc(O)cc1 [NCGC00018097-06] | > 20 | 7.8 | 4.1 | > 20 | > 20 | 6.67 | 6.25 | > 20 | > 10 | > 10 | > 10 | > 10 | > 10 | – | –
2 | CCCCOC(=O)c1ccc(N)cc1 [NCGC00016353-08] | > 20 | 0.137 | 0.586 | > 20 | > 20 | 4.56 | 5.61 | > 20 | > 10 | > 10 | > 10 | > 10 | > 10 | – | –
3 | Cc1ccc2c(Br)cc(Br)c(O)c2n1 [NCGC00160566-02] | 12.8 | 0.311 | – | > 6.67 | 0.001 | 4.77 | 1.03 | 1.16 | – | – | – | – | – | – | IC50 ([2]; read-out: VEGF_ADSC\ECFC Angio CD31 TubeArea summarized IC50): > 10 µM; IC50 ([3]; read-out: VEGF_ADSC\ECFC Angio Hoechst NucArea summarized IC50): > 10 µM
4 | CCC(COC(=O)c1cc(OC)c(OC)c(OC)c1)(c1ccccc1)N(C)C.O=C(O)/C=C\C(=O)O (centres unmarked) [NCGC00018269-05] | – | – | – | – | – | – | – | – | – | – | – | – | – | 1.615 | Basal_Viability ATP SNU-C1 IC50/EC50 (SNU-C1; basal): 2.4514 µM; Basal_Viability ATP RKO IC50/EC50 (RKO; basal): 0.1424 µM; Basal_Viability ATP SW480 IC50/EC50 (SW480; basal): > 20 µM; Basal_Viability ATP HT-29 IC50/EC50 (HT-29; basal): > 20 µM; Basal_Viability ATP Colo 320 IC50/EC50 (Colo320; basal): > 20 µM; Basal_Viability ATP DLD-1 IC50/EC50 (DLD-1; basal): > 20 µM; Basal_Viability ATP HCT116 IC50/EC50 (HCT116): > 20 µM; Hela CellCycMod PI 2N IC50/EC50 (HeLa cells; assay number 14, 2N): > 10 µM; Hela CellCycMod PI S Phase IC50/EC50 (HeLa cells; assay number 15, S phase): > 10 µM; Hela CellCycMod PI 4N IC50/EC50 (HeLa cells; assay number 16, 4N): > 10 µM; Hela CellCycMod PI MI IC50/EC50 (HeLa cells; assay number 17, MI): > 10 µM; Hela CellCycMod PI Cell Number IC50/EC50 (HeLa cells; assay number 18, cell number): > 10 µM
5 | CCc1cccc(N(C)C(N)=Nc2cccc3ccccc23)c1.Cl [NCGC00015236-04] | – | – | – | – | – | – | – | – | – | – | – | – | – | > 20 | Basal_Viability ATP SNU-C1 IC50/EC50 (SNU-C1; basal): > 20 µM; Basal_Viability ATP RKO IC50/EC50 (RKO; basal): > 20 µM; Basal_Viability ATP SW480 IC50/EC50 (SW480; basal): > 20 µM; VEGF_ADSC\ECFC Angio CD31 TubeArea IC50/EC50 [2]: > 10 µM; Basal_Viability ATP HT-29 IC50/EC50 (HT-29; basal): > 20 µM; Basal_Viability ATP Colo 320 IC50/EC50 (Colo320; basal): > 20 µM; Basal_Viability ATP DLD-1 IC50/EC50 (DLD-1; basal): > 20 µM; VEGF_ADSC\ECFC Angio Hoechst NucArea IC50/EC50 [3]: > 10 µM
6 | O=C(O)CN(CCN(CC(=O)O)CC(=O)O)CCN(CC(=O)O)CC(=O)O [NCGC00015360-08] | > 20 | 2.96 | 3.14 | > 20 | > 20 | > 20 | 0.896 | > 6.67 | > 10 | > 10 | > 10 | > 10 | > 10 | – | –
7 | O=Cc1ccc(O)c(O)c1O [NCGC00262933-01] | – | – | – | – | – | – | – | – | – | – | – | – | – | – | IC50/EC50, Basal_Viability ATP SNU-C1 (assay number 30) (SNU-C1): > 20 µM; IC50/EC50, Basal_Viability ATP RKO (assay number 29) (RKO): 6.232 µM; IC50/EC50, Basal_Viability ATP SW480 (assay number 24) (SW480): 11.3319 µM; IC50/EC50, Basal_Viability ATP HT-29 (assay number 28) (HT-29): > 20 µM; IC50/EC50, Basal_Viability ATP Colo 320 (assay number 27) (Colo320): 9.0837 µM; IC50/EC50, Basal_Viability ATP DLD-1 (assay number 23) (DLD-1): > 20 µM; IC50/EC50, GSK3b inh pretreated_Viability ATP HCT116 (assay number 26) [1]: 0.1412 µM; IC50/EC50, Basal_Viability ATP HCT116 (assay number 25) (HCT116): > 20 µM; IC50/EC50, Hela CellCycMod PI 2N (assay number 14) (HeLa cells): > 10 µM; IC50/EC50, Hela CellCycMod PI 4N (assay number 16) (HeLa cells): > 10 µM; IC50/EC50, Hela CellCycMod PI Cell Number (assay number 18) (HeLa cells): > 10 µM; IC50/EC50, Hela CellCycMod PI MI (assay number 17) (HeLa cells): > 10 µM; IC50/EC50, Hela CellCycMod PI S Phase (assay number 15) (HeLa cells): > 10 µM
8 | CN1CCC(Nc2ncc3ncnc(Nc4ccc(F)c(Cl)c4)c3n2)CC1 [NCGC00161422-04] | – | – | – | – | – | – | – | – | – | – | – | – | – | 3.384 | Basal_Viability ATP SNU-C1 IC50/EC50 (SNU-C1): 11.9566 µM; Basal_Viability ATP RKO IC50/EC50 (RKO): 3.167 µM; Basal_Viability ATP SW480 IC50/EC50 (SW480): 2.346 µM; Basal_Viability ATP HT-29 IC50/EC50 (HT-29): 4.003 µM; Basal_Viability ATP Colo 320 IC50/EC50 (Colo320): 11.6683 µM; Basal_Viability ATP DLD-1 IC50/EC50 (DLD-1): 2.292 µM; Basal_Viability ATP HCT116 IC50/EC50 (HCT116): > 20 µM; Hela CellCycMod PI 2N IC50/EC50 (HeLa cells; assay number 14, 2N): > 10 µM; Hela CellCycMod PI 4N IC50/EC50 (HeLa cells; assay number 16, 4N): > 10 µM; Hela CellCycMod PI MI IC50/EC50 (HeLa cells; assay number 17, MI): > 10 µM; Hela CellCycMod PI Cell Number IC50/EC50 (HeLa cells; assay number 18, cell number): > 10 µM
